In patent EP1137632B1, “THIOUREA INHIBITORS OF HERPES VIRUSES” (Wyeth, priority 1998, dated 2000):
Values after ≈ are worked out from the molar mass of the structure shown. Where two headings read alike, the source gives them in different places.

What was measured:
[1] = test system: HCMV recombinant mutant virus; test: microbe, parasite or virus in culture; type: cell-based, human cytomegalovirus; details: Human betaherpesvirus 5, read-out: IC50 (ug/ml) HCMV
How it was run: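 Human foreskin fibroblasts were infected with a recombinant HCMV carrying a beta-glucuronidase gene under a viral promoter, in the presence of compound. At 96 h post-infection, lysate beta-glucuronidase activity was read colorimetrically or fluorometrically as a replication marker. IC50 came from the compound dose range.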

HSV-1 = test: HSV antiviral (ELISA) assay in Vero cells; type: cell-based, herpes simplex virus type 1; details: read-out: IC50 (ug/ml) HSV
How it was run: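 Vero cells in DMEM/2% FBS treated with compound 30 min before HSV-1 infection (MOI 0.006), ~24 h at 37 °C. Viral glycoprotein D measured by cell ELISA with β-galactosidase-linked secondary and fluorogenic methylumbelliferyl galactoside (ex 365/em 450 nm); IC50 versus no-compound fluorescence.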

VZV strain Ellen = test: VZV antiviral (ELISA) assay in human foreskin fibroblast cells; type: cell-based, varicella-zoster virus; details: read-out: IC50 (ug/ml) VZV
How it was run: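 HFF cells infected with VZV Ellen (MOI <0.1) overnight, then plated at 3.5x10^4 cells/well with compound in DMEM + 2% FBS for three days at 37°C, 5% CO2. Viral glycoprotein II quantified by ELISA with β-galactosidase-linked secondary and 4-methylumbelliferyl-galactoside fluorescence (365/450 nm); IC50 versus no-compound fluorescence.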

[2] = Human alphaherpesvirus 1, HSV-1 in Vero cells
[3] = Human alphaherpesvirus 3, VZV strain Ellen in HFF cells

## CC(NC(=S)Nc1ccc(NC(=O)c2ccccc2F)c(C#N)c1)c1ccc(F)cc1 (stereo not drawn) [Example 1040, N-(2-Cyano-4-{3-[1-(4-fluoro-phenyl)-ethyl]-thioureido}-phenyl)-2-fluoro-benzamide]
[1]
  IC50: > 10 µg/mL
HSV-1; [2]
  IC50: > 10 µg/mL
VZV strain Ellen; [3]
  IC50: 0.05 µg/mL (≈ 0.115 µM)

## CC(NC(=S)Nc1ccc(NC(=O)c2ccccc2F)c(C#N)c1)c1ccc(Br)cc1 (stereo not drawn) [Example 1041, N-(4-{3-[1-(4-Bromo-phenyl)-ethyl]-thioureido}-2-cyano-phenyl)-2-fluoro-benzamide]
[1]
  IC50: 10.4 µg/mL (≈ 20.9 µM)
HSV-1; [2]
  IC50: > 10 µg/mL
VZV strain Ellen; [3]
  IC50: 0.096 µg/mL (≈ 0.193 µM)

## CC(NC(=S)Nc1ccc(NC(=O)c2ccccc2F)c(C#N)c1)c1ccc(C#N)cc1 (stereo not drawn) [Example 1042, N-(2-Cyano-4-{3-[1-(4-cyano-phenyl)-ethyl]-thioureido}-phenyl)-2-fluoro-benzamide]
[1]
  IC50: 2.1 µg/mL (≈ 4.73 µM)
HSV-1; [2]
  IC50: 4.2 µg/mL (≈ 9.47 µM)
VZV strain Ellen; [3]
  IC50: 0.54 µg/mL (≈ 1.22 µM)

## CC(NC(=S)Nc1ccc(NC(=O)c2ccccc2F)c(C#N)c1)c1cc2ccccc2o1 (stereo not drawn) [Example 1043, N-{4-[3-(1-Benzofuran-2-yl-ethyl)-thioureido]-2-cyano-phenyl)-2-fluoro-benzamide]
[1]
  IC50: > 10 µg/mL
HSV-1; [2]
  IC50: > 10 µg/mL
VZV strain Ellen; [3]
  IC50: 0.099 µg/mL (≈ 0.216 µM)

## CC(NC(=S)Nc1ccc(NC(=O)c2ccccc2F)c(C(=O)c2ccccc2)c1)c1ccc(F)cc1 (stereo not drawn) [Example 1044, N-(2-Benzoyl-4-{3-[1-(4-fluoro-phenyl)-ethyl]-thioureido}-phenyl)-2-fluoro-benzamide]
[1]
  IC50: 1.8 µg/mL (≈ 3.49 µM)
HSV-1; [2]
  IC50: > 10 µg/mL
VZV strain Ellen; [3]
  IC50: 3.3 µg/mL (≈ 6.4 µM)

## Cc1cc(NC(=S)NC(C)c2ccc(F)cc2)ccc1NC(=O)c1ccccc1F (stereo not drawn) [Example 1045, 2-Fluoro-N-(4-{3-[1-(4-fluoro-phenyl)-ethyl]-thioureido}-2-methyl-phenyl)-benzamide]
[1]
  IC50: 1.5 µg/mL (≈ 3.53 µM)
HSV-1; [2]
  IC50: 6.2 µg/mL (≈ 14.6 µM)
VZV strain Ellen; [3]
  IC50: 0.05 µg/mL (≈ 0.118 µM)

## Cc1cc(NC(=S)NC(C)c2ccc(Br)cc2)ccc1NC(=O)c1ccccc1F (stereo not drawn) [Example 1046, N-(4-{3-[1-(4-Bromo-phenyl)-ethyl]-thioureido}-2-methyl-phenyl)-2-fluoro-benzamide]
[1]
  IC50: 2.8 µg/mL (≈ 5.76 µM)
HSV-1; [2]
  IC50: 6.3 µg/mL (≈ 13 µM)
VZV strain Ellen; [3]
  IC50: 0.057 µg/mL (≈ 0.117 µM)

## Cc1cc(NC(=S)NC(C)c2ccc(C#N)cc2)ccc1NC(=O)c1ccccc1F (stereo not drawn) [Example 1047, N-(4-{3-[1-(4-Cyano-phenyl)-ethyl]-thioureido}-2-methyl-phenyl)-2-fluoro-benzamide]
[1]
  IC50: 6.1 µg/mL (≈ 14.1 µM)
HSV-1; Human alphaherpesvirus 1, Vero
  IC50: > 10 µg/mL
VZV strain Ellen; Human alphaherpesvirus 3, HFF
  IC50: 0.63 µg/mL (≈ 1.46 µM)

## Cc1cc(NC(=S)NC(C)c2cc3ccccc3o2)ccc1NC(=O)c1ccccc1F (stereo not drawn) [Example 1048, N-{4-[3-(1-Benzofuran-2-yl-ethyl)-thioureido]-2-methyl-phenyl}-2-fluoro-benzamide]
[1]
  IC50: 3.4 µg/mL (≈ 7.6 µM)
HSV-1; [2]
  IC50: > 10 µg/mL
VZV strain Ellen; [3]
  IC50: 0.061 µg/mL (≈ 0.136 µM)

## CC(NC(=S)Nc1ccc(NC(=O)c2ccccc2F)c(N(C)C)c1)c1ccc(F)cc1 (stereo not drawn) [Example 1049, N-(2-Dimethylamino-4-{3-[1-(4-fluoro-phenyl)-ethyl]-thioureido}-phenyl)-2-fluoro-benzamide]
[1]
  IC50: 4.5 µg/mL (≈ 9.9 µM)
HSV-1; [2]
  IC50: 8 µg/mL (≈ 17.6 µM)
VZV strain Ellen; [3]
  IC50: 0.07 µg/mL (≈ 0.154 µM)

## CC(NC(=S)Nc1ccc(NC(=O)c2ccccc2F)c(OCc2ccccc2)c1)c1ccc(C#N)cc1 (stereo not drawn) [Example 1050, N-(2-Benzyloxy-4-{3-[1-(4-cyano-phenyl)-ethyl]-thioureido}-phenyl)-2-fluoro-benzamide]
[1]
  IC50: > 10 µg/mL
HSV-1; [2]
  IC50: > 10 µg/mL
VZV strain Ellen; [3]
  IC50: > 7.5 µg/mL

## CC(NC(=S)Nc1ccc(NC(=O)c2ccccc2F)c(OCc2ccccc2)c1)c1ccc(F)cc1 (stereo not drawn) [Example 1051, N-(2-Benzyloxy-4-{3-[1-(4-fluoro-phenyl)-ethyl]-thioureido}-phenyl)-2-fluoro-benzamide]
[1]
  IC50: > 10 µg/mL
HSV-1; [2]
  IC50: > 10 µg/mL
VZV strain Ellen; [3]
  IC50: 0.7 µg/mL (≈ 1.35 µM)

## CCCCOc1cc(NC(=S)NC(C)c2ccc(F)cc2)ccc1NC(=O)c1ccccc1F (stereo not drawn) [Example 1055, N-(2-Butoxy-4-{3-[1-(4-fluoro-phenyl)-ethyl]-thioureido}-phenyl)-2-fluoro-benzamide]
[1]
  IC50: > 10 µg/mL
HSV-1; [2]
  IC50: > 10 µg/mL
VZV strain Ellen; [3]
  IC50: 0.32 µg/mL (≈ 0.662 µM)

## CCCCOc1cc(NC(=S)NC(C)c2ccc(C#N)cc2)ccc1NC(=O)c1ccccc1F (stereo not drawn) [Example 1056, N-(2-Butoxy-4-{3-[1-(4-cyano-phenyl)-ethyl]-thioureido}-phenyl)-2-fluoro-benzamide]
[1]
  IC50: 2.5 µg/mL (≈ 5.1 µM)
HSV-1; [2]
  IC50: > 10 µg/mL
VZV strain Ellen; [3]
  IC50: 0.4 µg/mL (≈ 0.815 µM)
